Assay results reported in PMC3335845, “In-Vivo Biodistribution and Safety of ^99mTc-LLP2A-HYNIC in Canine Non-Hodgkin Lymphoma” (PLoS ONE, 2012).

Key:
canine lymphoma = tested on: canine lymphoma; parameters: method as in PMID 16767086, PMID 19289419, PMID 22177114; settings: in vitro, canine cell lines and tissue samples; less than in human cell lines and xenografts; cited from earlier work
normal lymphocytes = tested on: normal lymphocytes; parameters: method as in PMID 16767086, PMID 22177114; settings: increases with activation; cited from earlier work
[1] = parameters: method as in PMID 16767086; settings: human plasma; cited from earlier work
activated α4β1 integrin = tested on: activated α4β1 integrin; parameters: method as in PMID 9479864; settings: cited from earlier work
[2] = Safety monitoring in dogs (vital signs, blood pressure, complete blood counts, serum biochemistry); type: in vivo; settings: normal dogs and those with NHL
Procedure: All 3 dogs were mixed breed dogs and after physical examination were clinically normal. […] Images of the whole body in orthogonal planes were acquired at 2 hours, 4 hours, and 6 hours after injection. Complete blood counts and serum biochemistry were performed before and after imaging.

[3] = Whole body activity by handheld monitor at 1 m from the dog; type: in vivo, dogs
Excerpt: All dogs were held overnight in a protected area with institutionally approved radiation safety protocols. Dogs were released from the facility after whole body radiation levels were less than 0.5 mR/hr at the skin surface and less than 0.05 mR/hr at 1 m.

[4] = Organ uptake by gamma camera scintigraphy (organ:muscle ratio and percent injected dose); type: in vivo, dogs
Procedure: All dogs were imaged with a Gamma camera (Technicare Omega 500, Solon, Ohio, or IS2, Ottawa, Ontario). Images were obtained of the whole body in overlapping segments, in right lateral, left lateral, and sternal recumbency. Images were obtained to 200,000 counts, with a 256×256 bit matrix and 16-bit depth. A camera standard of 200 uCi in 10 mL of water was included in each image to ensure stable measurements over the scan period. Camera sensitivity was determined by placing the camera standard 30 cm from the detector and scanning for 1 minute. This calibration factor was used to convert individual organ emission counts to mCi.
Chemotherapy consisted of prednisone, vincristine, cyclophosphamide, and L-asparaginase. Two dogs had whole body computed tomography (CT) performed.
ROIs were drawn on the 2 hour images and duplicated for the opposite lateral projection and subsequent time points, and adjusted for altered patient position. […]
Organs that were clearly delineated on conjugate projections (liver, GI, bone marrow, lung) were measured using the geometric mean method, and smaller or peripherally located organs (kidney, mandibular lymph nodes, salivary gland) were measured using the effective point source method. Depth for depth correction was measured on orthogonal images. Lung activity was measured using an ROI in a posterior region and normalized to the total pixels of the lung. […] […] Camera sensitivity was measured using the camera standard. Percent injected dose and organ:muscle ratio were calculated for each imaging study at each time point. Imaging results are presented in graphical format as percent injected dose for each organ evaluated, as well as organ:muscle ratios.

Compound	affinity to canine lymphoma (canine lymphoma)	affinity to normal lymphocytes (normal lymphocytes)	resistance to proteases [1]	affinity to activated α4β1 on lymphoma cells (activated α4β1 integrin)	overall safety [2]	mean whole body activity ([3]; 5 minutes post-injection) [mR/h]	whole body activity, range ([3]; 5 minutes post-injection)	mean whole body activity ([3]; 360 min) [mR/h]	whole body activity ([3]; 24 hours) [mR/h]	route of elimination ([4]; dogs)	organ:muscle ratio ([4]; kidney affected with lymphoma (dog L1), highest ratio of tumor tissues)	organ:muscle ratio ([4]; unaffected kidney in the same dog (L1))
N-[[4-[[[(2-ethylphenyl)amino]carbonyl]amino]phenyl]acetyl]-N ^ε-6-[(2E)-1-oxo-3-(3-pyridinyl-2-propenyl)]-L-lysyl-L-2-aminohexanedioyl-(1-amino-1-cyclohexane)carboxamide [LLP2A]	good affinity	mild affinity	resistant to proteases in human plasma	high affinity	–	–	–	–	–	–	–	–
Cc1ccccc1NC(=O)Nc1ccc(CC(=O)N[C@@H](CCCCNC(=O)/C=C/c2cccnc2)C(=O)N[C@@H](CCCC(=O)O)C(=O)NC2(C(=O)NCCOCCOCCNC(=O)CCC(=O)NCCOCCOCCNC(=O)CCC(=O)N[C@@H](CCCCNC(=O)c3ccc(NN)nc3)C(N)=O)CCCCC2)cc1 [^99mTc-LLP2A-HYNIC, metal not drawn]	–	–	–	–	safe	0.5	0.2–0.8 mR/h	0.13	0.04	mainly eliminated through the kidneys	7.00	5.27
